Laboratory results taken from patent US20250328351A1, “CARBONIC ANHYDRASE INHIBITORS AND ANTIBIOTICS AGAINST MULTIDRUG RESISTANT BACTERIA” (Purdue Research Foundation, priority 2018, published 2025).
Like-named read-outs stand apart in the source and are kept apart here.

Columns and labels:
[1] = tested on: Mutant-8 of Enterococcus fecalis NR 31975; test: microbe, parasite or virus in culture; format: cell-based
[2] = tested on: Enterococcus fecalis Strain SF 28073 - NR31972; test: MIC, broth microdilution (CLSI); format: cell-based; details: Enterococcus, TSB, read-out: MIC
Experimental: (§1) The minimum inhibitory concentrations (MICs) of the compounds and control drugs were determined using the broth microdilution method, according to guidelines outlined by the Clinical and Laboratory Standards Institute (CLSI). Enterococci strains were grown aerobically overnight on tryptone soya agar plates at 37° C., afterwards a bacterial solution equivalent to 0.5 McFarland standard was prepared and diluted in tryptone soy broth (TSB) to achieve a bacterial concentration of about 5×10^5 CFU/mL and seeded in 96-well well plates. Compounds and control drugs were added in the first row of the 96-well plates and serially diluted along the plates. Plates were then incubated aerobically at 37° C. for 18-20 hours. MICs reported in Table 1 are the minimum concentration of the compounds/control drugs that could inhibit completely the visual growth of the bacteria.

[3] = tested on: Enterococcus fecalis Strain SF24413 NR31971; test: MIC, broth microdilution (CLSI); format: cell-based; details: Enterococcus, TSB, read-out: MIC
Experimental: as §1

[4] = tested on: Enterococcus faecium Patient #3-1 NR-31912; test: MIC, broth microdilution (CLSI); format: cell-based; details: Enterococcus faecium, TSB, read-out: MIC
Experimental: as §1

VERO cells = test: In vitro cytotoxicity, MTS assay; format: cell-based, monkey; details: concentration up to 128 μg/mL; two hours incubation
Experimental: Toxicity assessment: Compounds AS005H, AS005J, AS004B, AS005K, AS005A and 005D were assayed (at concentrations of 64 and 128 μg/mL) against a fibroblast-like monkey kidney cell line (VERO cell) to determine the potential toxic effect in vitro. Briefly, cells were cultured in Minimum Essential Medium (MEM) supplemented with 10% fetal bovine serum (FBS), 1 mM sodium pyruvate, and penicillin-streptomycin at 37° C. with CO2 (5%). Control cells received DMSO alone at a concentration equal to that in drug-treated cell samples. The cells were incubated with the compounds (in triplicate) in a 96-well plate at 37° C. with CO2 (5%) for two hours. The assay reagent MTS 3-(4,5-dimethylthiazol-2-yl)-5-(3-carboxymethoxyphenyl)-2-(4-sulfophenyl)-2H-tetrazolium) (Promega, Madison, WI, USA) was subsequently added and the plate was incubated for four hours. Absorbance readings (at OD490) were taken using a kinetic microplate reader (Molecular Devices, Sunnyvale, CA, USA). The quantity of viable cells after treatment with each compound was expressed as a percentage of the viability of DMSO-treated control cells (average of triplicate wells±standard deviation). The toxicity data was analyzed via a two-way ANOVA, with post hoc Dunnet's multiple comparisons test (P<0.05), utilizing GraphPad Prism 6.0 (GraphPad Software, La Jolla, CA).
Percent viable mammalian cells (measured as average absorbance ratio (test agent relative to DMSO) for cytotoxicity analysis of compounds AS005H, AS005J, AS004B, AS005K, AS005A and 005D (tested in triplicates) at 64 and 128 μg/mL against VERO cells using the MTS 3-(4,5-dimethylthiazol-2-yl)-5-(3-carboxymethoxyphenyl)-2-(4-sulfophenyl)-2H-tetrazolium) assay. Dimethyl sulfoxide (DMSO) was used as a negative control to determine a baseline measurement for the cytotoxic impact of each compound. The absorbance values represent an average of a minimum of three samples analyzed for each compound. Error bars represent standard deviation values for the absorbance values.

[5] = tested on: Mutant-2 of Enterococcus fecalis NR 31975; test: microbe, parasite or virus in culture; format: cell-based
[6] = tested on: Mutant-9 of Enterococcus fecalis NR 31975; test: microbe, parasite or virus in culture; format: cell-based
[7] = tested on: Mutant-4 of Enterococcus fecalis NR 31975; test: microbe, parasite or virus in culture; format: cell-based
[8] = tested on: Mutant-13 of Enterococcus fecalis NR 31975; test: microbe, parasite or virus in culture; format: cell-based
[9] = tested on: Mutant-5 of Enterococcus fecalis NR 31975; test: microbe, parasite or virus in culture; format: cell-based
[10] = tested on: Mutant-15 of Enterococcus fecalis NR 31975; test: microbe, parasite or virus in culture; format: cell-based
[11] = tested on: Mutant-11 of Enterococcus fecalis NR 31975; test: microbe, parasite or virus in culture; format: cell-based
[12] = tested on: Enterococcus fecalis Strain MMH594 - NR31975; test: microbe, parasite or virus in culture; format: cell-based; details: Enterococcus, Table 4; Wild-type E. fecalis NR 31975
Experimental: as §1

CC(C)=CC(=O)Nc1nnc(S(N)(=O)=O)s1 [CAI0016, 3-Methyl-N-(5-sulfamoyl-1,3,4-thiadiazol-2-yl)but-2-enamide]
1 µg/mL: MIC ([4]; Table 1) | MIC [12]
0.5 µg/mL: MIC ([2]; Table 1) | MIC ([2]; Table 7) | MIC ([3]; Table 1) | MIC ([3]; Table 7) | MIC ([4]; Table 7)
4 µg/mL: MIC [1] | MIC [6] | MIC [8] | MIC [9] | MIC [11]
non-toxic: toxicity to VERO cells (percent viable cells, MTS) (VERO cells)
8 µg/mL: MIC [5] | MIC [7] | MIC [10]
